{
  "source": "paper PMC7571063",
  "about": "“High-Resolution Mass Spectrometry-Based Approaches for the Detection and Quantification of Peptidase Activity in Plasma” (Molecules, 2020)",
  "tested_on": "proteases in pooled pig plasma",
  "experiment": "Multiplex substrate profiling by mass spectrometry (MSP-MS) of pig plasma with the 228-member tetradecapeptide library",
  "conditions": "pooled pig plasma ~50-fold diluted to 1 mg/mL protein, DPBS 1 mM DTT, room temperature, 15 and 60 min, LC-MS/MS, triplicate",
  "note": "Entries after “also recorded” stand apart in the source; their conditions may differ.",
  "from_the_text": "To quantify proteolytic activity in plasma samples obtained from healthy pigs, we used the MSP-MS assay, which is a global and unbiased substrate-based protease profiling approach. This assay uses a physicochemically diverse library of peptides as substrates for proteases present in a biological sample. Tandem mass spectrometry is used to quantify protease-derived peptide cleavage products. These substrates were designed to contain a unique dipeptide at each terminus (position 1–2 and 13–14) to profile exo-acting proteases and a central decapeptide sequence (position 3–12) consisting of all combinations of neighbor and near-neighbor amino acid pairs that are used to profile endoproteases [10].\nEqual volumes of plasma from six pigs were mixed and then diluted to a final concentration of 1 mg/mL protein in assay buffer and mixed with the synthetic peptides. This dilution of ~50-fold reduced the concentration of plasma proteins and peptides in the assay that could interfere with the quantification of the synthetic peptides. Cleavage of synthetic peptides by proteases in neat plasma was predicted to occur in minutes and therefore dilution of plasma decreases the concentration of all proteases so that activity could be monitored at two time intervals over the course of an hour-long assay. This allowed us to detect and quantify peptide cleavage products after 15 and 60 min incubations. […]",
  "data": [
    {"sequence": "FRIHGFDEAHNAWM", "values": [
      {"measurement": "cleavage site of the library peptide by pig plasma proteases", "value": "cleaved between His-Asn; also recorded: cleaved between Ala-Trp"}
    ]}
  ]
}
